The record followed here is patent US10618900B2, “5-aromatic alkynyl substituted benzamide compound and preparation method, pharmaceutical composition, and use thereof” (SHANGHAI INSTITUTE OF MATERIA MEDICA, CHINESE ACADEMY OF …, priority 2015, dated 2020).

pIC50: −log10 of the molar value.

The target of experiment [1] is mGluR5 (Homo sapiens (Human), UniProt P41594). Kind of experiment: In vitro activity test for mGluR5, HDB Fluo-8 calcium fluorescence detection (FLIPR). Format: cell-based. To be noted: HEK293/mGluR5 cell line. The text has this:
Experimental instrument: FLIPR Tetra real-time fluorescence imaging analysis system
Experimental method: HDB Fluo-8 calcium fluorescence detection method
Experimental principle: HDB Fluo-8 calcium ion fluorescence detection method is a fast, simple and reliable fluorescence detection method of intracellular calcium concentration changes. The Fluo 8-AM fluorescent dye is an […] derivative of Fluo 8 which can easily penetrate the cell membrane into the cell by culture. The fluorescent dye into the cell will be hydrolyzed by intracellular esterase, the resulting Fluo 8 cannot easily pass through the lipid bimolecular membrane as a polar molecule, and will retain in the cell, and combine with calcium (Ca^2+) to produce fluoresces.
Cells expressing GPCR receptor protein (mGluR5) were first calibrated with a calcium ion sensitive fluorescent probe and then stimulated with the compound. After stimulation, the activation of the receptor lead to the calcium ion mobilization, and the fluorescent probe captures the calcium ion to induce the fluorescence signal. The signal can be read by a fluorescent plate reader. The fluorescent plate reader contains a sampling head for compound addition, thus enabling the change of the fluorescence value of the compound be read in real time. […]

Experiment [2] concerns ICR mice. Briefly: Mouse forced swimming experiment. Type of experiment: in vivo. To be noted: later 4 min of 6 min. As to the method: Experimental principle: The principle of Mouse Forced Swimming Test (FST) is to allow the mouse to swim in a limited space from which it can not escape, thus inducing animal to non-movement state which reflects the animal's desperate behavior.
Experimental animals: ICR mice, 20-28 g, both male and female
Sample treatment: The test compounds were ground with 1% CMC (sodium carboxymethyl cellulose) aqueous solution to prepare a homogeneous solution. In vivo dose was 5 mg/kg, 10 mg/kg and 20 mg/kg, the compound was oral administered at 0.1 ml/10 g volume/body weight. Positive control drugs (amitriptyline and fluoxetine) were dissolved with 0.9% saline, in vivo dose was 10 mg/kg, administered by intraperitoneal injection at 0.1 ml/10 g volume/body weight. (Note: the mice were fasted for 8 h and drinked water ad libitum before the compound was given.)
Experimental Methods: mice were grouped randomly. […] On the second day of the test, the mice were orally administered the compound. After 1 hour (0.5 hours after intraperitoneal injection), the mice were then put in water to record the immobility time in the later 4 min of 6 min.

Chain of mGluR5 (P41594 21-1212): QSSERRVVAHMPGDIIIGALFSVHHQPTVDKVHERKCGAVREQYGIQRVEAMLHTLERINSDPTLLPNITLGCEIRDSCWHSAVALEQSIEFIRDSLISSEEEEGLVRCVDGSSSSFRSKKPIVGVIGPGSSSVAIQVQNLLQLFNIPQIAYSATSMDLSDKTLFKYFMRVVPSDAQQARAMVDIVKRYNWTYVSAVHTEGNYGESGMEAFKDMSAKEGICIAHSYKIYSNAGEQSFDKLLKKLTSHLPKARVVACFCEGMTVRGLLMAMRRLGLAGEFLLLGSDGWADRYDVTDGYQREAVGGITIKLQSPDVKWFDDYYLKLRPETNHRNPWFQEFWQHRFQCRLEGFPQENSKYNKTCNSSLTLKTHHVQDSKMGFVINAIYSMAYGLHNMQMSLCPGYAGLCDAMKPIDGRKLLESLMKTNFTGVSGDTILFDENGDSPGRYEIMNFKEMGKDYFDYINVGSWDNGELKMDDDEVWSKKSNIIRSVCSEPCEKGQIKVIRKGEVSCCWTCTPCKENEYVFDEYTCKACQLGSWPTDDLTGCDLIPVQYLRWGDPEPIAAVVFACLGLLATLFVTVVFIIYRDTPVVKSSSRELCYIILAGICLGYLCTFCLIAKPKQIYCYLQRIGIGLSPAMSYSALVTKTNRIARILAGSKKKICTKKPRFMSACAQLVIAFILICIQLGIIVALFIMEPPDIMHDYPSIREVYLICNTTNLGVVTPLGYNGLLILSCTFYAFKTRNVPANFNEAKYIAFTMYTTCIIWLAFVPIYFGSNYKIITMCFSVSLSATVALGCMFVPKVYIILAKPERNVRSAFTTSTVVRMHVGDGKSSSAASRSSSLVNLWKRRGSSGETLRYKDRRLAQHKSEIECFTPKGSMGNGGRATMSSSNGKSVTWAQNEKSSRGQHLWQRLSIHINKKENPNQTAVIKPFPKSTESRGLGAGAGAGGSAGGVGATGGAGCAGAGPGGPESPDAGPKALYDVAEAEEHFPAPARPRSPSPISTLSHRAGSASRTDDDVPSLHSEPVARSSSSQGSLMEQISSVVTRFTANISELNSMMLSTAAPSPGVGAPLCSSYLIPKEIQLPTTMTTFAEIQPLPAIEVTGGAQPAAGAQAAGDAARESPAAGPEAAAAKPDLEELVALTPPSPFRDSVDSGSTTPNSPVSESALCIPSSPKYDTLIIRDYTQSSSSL

With `Cc1nc(C#Cc2ccc(F)c(C(=O)Nc3cccnc3)c2)cs1` [ZD043], in experiment [1], the pIC50 is 8.25. Further, the “immobility time (%) Mean ± SEM” value in experiment [2] (5 mg/kg oral) is “reduced”; in experiment [2] (5 mg/kg oral, listed as D043), 74.97 ± 18.79%; in experiment [2] (10 mg/kg oral) it was “reduced”; in experiment [2] (10 mg/kg oral, listed as D043), 66.01 ± 21.08%; in experiment [2] (20 mg/kg oral), “reduced”; in experiment [2] (20 mg/kg oral, listed as D043), 46.50 ± 13.03%.

In general, pIC50 refers to −log10 of the IC50, conventionally taken in molar units.
